The text below walks through data of ChEMBL document CHEMBL5120753, “Isolation and biological activity of azocine and azocane alkaloids” (Bioorg Med Chem, 2022).

For data set [1], the system named is Mycobacterium tuberculosis. Description: Antimycobacterial activity against Mycobacterium tuberculosis H37Rv ATCC 27294 assessed as inhibition of bacterial growth by microplate alamar blue assay. Type of data set: functional. For orientation: The colour change of resazurin is a common sign of viable cells or microbes.
The nature of data set [2]: Toxicity in iv dosed rat assessed as lethal dose. The note with it: in vivo.
Data set [3] in a line: Cytotoxicity against human SOSP-9607 cells assessed as cell growth inhibition incubated for 48 hrs by microplate reader based analysis. Conditions: SOSP-9607, 48 h. It counts as functional.
A further data set relates to SAOS-2. The experiment in a line: Cytotoxicity against human SAOS-2 cells assessed as cell growth inhibition incubated for 48 hrs by microplate reader based analysis. Type of data set: functional. Conditions: SAOS-2, 48 h.
The test system of the next data set is MG-63. The experiment in a line: Cytotoxicity against human MG-63 cells assessed as cell growth inhibition incubated for 48 hrs by microplate reader based analysis. Type of data set: functional. The note with it: MG-63, 48 h.
A further data set concerns U2OS. Description: Cytotoxicity against human U2OS cells assessed as cell growth inhibition incubated for 48 hrs by microplate reader based analysis. It counts as functional.
Data set [4] in a line: Displacement of [3H]-naloxone from opiate receptor in rat cortical brain membrane assessed as inhibition constant incubated for 30 mins by liquid scintillation counter analysis. Type of data set: cell membranes. A general note: Displacement assays read how much labelled ligand stays bound in the presence of the test substance.
Data set [5] deals with Prostaglandin G/H synthase 2 (Homo sapiens) (UniProt P35354). Description: Inhibition of COX-2 (unknown origin) using arachidonic acid as substrate at 100 uM preincubated for 5 mins followed by substrate addition measured after 15 mins by absorbance based analysis relative to control. The note with it: time 20.0 min.
Sequence of Prostaglandin G/H synthase 2 (Homo sapiens) (P35354 whole entry): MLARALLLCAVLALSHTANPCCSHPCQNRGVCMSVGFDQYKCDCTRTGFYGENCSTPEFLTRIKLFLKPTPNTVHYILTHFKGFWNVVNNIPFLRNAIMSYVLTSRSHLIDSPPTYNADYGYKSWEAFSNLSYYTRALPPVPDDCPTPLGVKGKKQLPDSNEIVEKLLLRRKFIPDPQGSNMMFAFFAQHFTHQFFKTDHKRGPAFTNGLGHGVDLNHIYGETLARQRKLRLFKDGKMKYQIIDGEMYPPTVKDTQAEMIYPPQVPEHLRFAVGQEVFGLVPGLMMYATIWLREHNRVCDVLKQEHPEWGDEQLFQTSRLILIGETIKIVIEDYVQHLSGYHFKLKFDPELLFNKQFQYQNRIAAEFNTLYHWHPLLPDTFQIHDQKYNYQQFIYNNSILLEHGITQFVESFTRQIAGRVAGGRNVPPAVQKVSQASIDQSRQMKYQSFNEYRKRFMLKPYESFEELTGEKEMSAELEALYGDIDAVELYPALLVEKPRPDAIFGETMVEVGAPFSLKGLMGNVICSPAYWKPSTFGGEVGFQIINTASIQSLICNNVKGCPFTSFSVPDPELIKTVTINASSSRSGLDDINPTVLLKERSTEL
A further data set relates to Leishmania infantum. Description: Antileishmanial activity against Leishmania infantum PB75 assessed as cell growth inhibition measured after 72 hrs by MTT assay. Type of data set: functional.
Data set [6] has as its target Polyunsaturated fatty acid 5-lipoxygenase (Homo sapiens) (UniProt P09917). The experiment in a line: Inhibition of 5-LOX (unknown origin) using arachidonic acid as substrate at 100 uM preincubated for 5 mins followed by substrate addition measured after 15 mins by absorbance based analysis relative to control. Conditions: time 20.0 min.
Data set [7] has as its target Prostaglandin G/H synthase 1 (Homo sapiens) (UniProt P23219). The experiment in a line: Inhibition of COX-1 (unknown origin) using arachidonic acid as substrate at 100 uM preincubated for 5 mins followed by substrate addition measured after 15 mins by absorbance based analysis relative to control. Conditions: time 20.0 min.
A short description of data set [8]: Toxicity in Artemia salina assessed as mortality at 10 ug/ml measured after 24 hrs by microscopic analysis. Conditions: at 10 µg/mL, read-out: Activity.
Data set [9] can be described thus: Inhibition of urease (unknown origin). Also noted: species or system Homo sapiens.
A short description of data set [10]: Antioxidant activity assessed as DPPH radical scavenging activity. It counts as functional.
Data set [11] has as its target T1, Xanthine dehydrogenase/oxidase (Homo sapiens, UniProt P47989). The experiment in a line: Inhibition of xanthine oxidase (unknown origin).
The subject of the next data set is N2a. Description: Neuroprotective activity against paraquat induced mouse Neuro2a cells assessed as reduction in cell viability at 1 uM pretreated for 1 hr followed by paraquat addition measured after 24 hrs by MTT method relative to control. Type of data set: functional. Conditions: time 25 hrs.
Another data set concerns the target Cholinesterase (Homo sapiens, UniProt P06276). Description: Inhibition of human BChE.
For another data set, the system named is Proteus mirabilis. Description: Antibacterial activity against Proteus mirabilis assessed as inhibition of bacterial growth incubated for 18 to 24 hrs. It counts as functional. The note with it: time 18-24 hrs.
The subject of data set [12] is Staphylococcus epidermidis. Description: Antibacterial activity against Staphylococcus epidermidis assessed as inhibition of bacterial growth incubated for 18 to 24 hrs. Type of data set: functional. The note with it: time 18-24 hrs.
The subject of data set [13] is Lactiplantibacillus plantarum. The experiment in a line: Antibacterial activity against Lactobacillus plantarum assessed as inhibition of bacterial growth incubated for 18 to 24 hrs. It counts as functional. The note with it: time 18-24 hrs.
Data set [14] is described as follows: Antioxidant activity assessed as free radical scavenging activity incubated for 30 mins by DPPH assay. It counts as functional.
For the next data set, the system named is P388. Description: Cytotoxicity against mouse P388 cells assessed as effective dose. The note with it: read-out: ED50 (the source's name). Type of data set: functional.
Data set [15] addresses T1, Xanthine dehydrogenase/oxidase. Description: Inhibition of xanthine oxidase (unknown origin) at 10 uM using xanthine as substrate.
Data set [16] can be described thus: Cytotoxicity against vincristine resistant human VJ300 cells assessed as cell growth inhibition. It counts as functional, cell-based. Conditions: VJ-300.
The test system of the next data set is KB. Description: Cytotoxicity against human KB cells assessed as cell growth inhibition. Type of data set: functional, cell-based.
Data set [17] in a line: Toxicity in iv dosed Swiss-Webster mouse assessed as lethal dose at 7.5 ml/kg, iv administered through tail vein injection by Litchfield-Wilcoxon method. Type of data set: organism-based. Conditions: in vivo.
The test system of a further data set is SMMC-7721. The experiment in a line: Cytotoxicity against human SMMC-7721 cells assessed as cell growth inhibition at 0.9 uM measured after 48 hrs by MTT assay relative to control. It counts as functional. Also noted: scale not given: the % may be the effect or the level left.
Another data set deals with MCF7. The experiment in a line: Cytotoxicity against human MCF7 cells assessed as cell growth inhibition measured after 48 hrs by MTT assay. Type of data set: functional, cell-based. Conditions: MCF7, 48 h. (Formazan colour is commonly taken as a measure of viable cells.)
The test system of a further data set is HepG2. The experiment in a line: Cytotoxicity against human HepG2 cells assessed as cell growth inhibition at 0.9 uM measured after 48 hrs by MTT assay relative to control. It counts as functional. Also noted: scale not given: the % may be the effect or the level left.
Another data set relates to L1210. Description: Cytotoxicity against mouse L1210 cells assessed as cell growth inhibition. It counts as functional, cell-based.

Broadly, the MIC is the lowest concentration found to suppress growth. A word on the LD50: it is the dose at which mortality reaches 50%. Broadly, the IC50 is the concentration at which inhibition is half-maximal. A word on the Ki: it is a dissociation constant, usually derived from enzyme kinetics or from competition with a known ligand. For orientation: inhibition means the share of the control response that was lost under treatment. What is called GI50 is the concentration at which growth is held to half of that of the control.

≈ marks a conversion by molar mass, not a printed value.

Sequence of Polyunsaturated fatty acid 5-lipoxygenase (Homo sapiens) (P09917 whole entry): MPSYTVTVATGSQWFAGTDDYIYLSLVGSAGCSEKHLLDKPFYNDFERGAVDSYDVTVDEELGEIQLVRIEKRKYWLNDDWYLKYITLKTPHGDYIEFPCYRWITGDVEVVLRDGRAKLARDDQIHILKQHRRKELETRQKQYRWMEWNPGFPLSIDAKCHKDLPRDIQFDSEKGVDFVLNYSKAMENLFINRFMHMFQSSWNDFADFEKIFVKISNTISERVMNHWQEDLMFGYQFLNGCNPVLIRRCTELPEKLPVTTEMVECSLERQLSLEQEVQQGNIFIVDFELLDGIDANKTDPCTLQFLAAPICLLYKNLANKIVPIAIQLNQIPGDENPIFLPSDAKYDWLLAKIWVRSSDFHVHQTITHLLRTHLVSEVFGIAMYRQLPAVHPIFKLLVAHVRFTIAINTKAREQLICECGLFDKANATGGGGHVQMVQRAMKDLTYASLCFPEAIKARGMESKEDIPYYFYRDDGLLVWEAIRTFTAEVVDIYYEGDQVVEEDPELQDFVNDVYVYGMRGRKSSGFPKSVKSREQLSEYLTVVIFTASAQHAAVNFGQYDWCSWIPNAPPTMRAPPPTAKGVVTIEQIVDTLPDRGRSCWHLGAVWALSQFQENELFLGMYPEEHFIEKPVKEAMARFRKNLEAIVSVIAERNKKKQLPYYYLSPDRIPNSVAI
T1 sequence (P47989 whole entry): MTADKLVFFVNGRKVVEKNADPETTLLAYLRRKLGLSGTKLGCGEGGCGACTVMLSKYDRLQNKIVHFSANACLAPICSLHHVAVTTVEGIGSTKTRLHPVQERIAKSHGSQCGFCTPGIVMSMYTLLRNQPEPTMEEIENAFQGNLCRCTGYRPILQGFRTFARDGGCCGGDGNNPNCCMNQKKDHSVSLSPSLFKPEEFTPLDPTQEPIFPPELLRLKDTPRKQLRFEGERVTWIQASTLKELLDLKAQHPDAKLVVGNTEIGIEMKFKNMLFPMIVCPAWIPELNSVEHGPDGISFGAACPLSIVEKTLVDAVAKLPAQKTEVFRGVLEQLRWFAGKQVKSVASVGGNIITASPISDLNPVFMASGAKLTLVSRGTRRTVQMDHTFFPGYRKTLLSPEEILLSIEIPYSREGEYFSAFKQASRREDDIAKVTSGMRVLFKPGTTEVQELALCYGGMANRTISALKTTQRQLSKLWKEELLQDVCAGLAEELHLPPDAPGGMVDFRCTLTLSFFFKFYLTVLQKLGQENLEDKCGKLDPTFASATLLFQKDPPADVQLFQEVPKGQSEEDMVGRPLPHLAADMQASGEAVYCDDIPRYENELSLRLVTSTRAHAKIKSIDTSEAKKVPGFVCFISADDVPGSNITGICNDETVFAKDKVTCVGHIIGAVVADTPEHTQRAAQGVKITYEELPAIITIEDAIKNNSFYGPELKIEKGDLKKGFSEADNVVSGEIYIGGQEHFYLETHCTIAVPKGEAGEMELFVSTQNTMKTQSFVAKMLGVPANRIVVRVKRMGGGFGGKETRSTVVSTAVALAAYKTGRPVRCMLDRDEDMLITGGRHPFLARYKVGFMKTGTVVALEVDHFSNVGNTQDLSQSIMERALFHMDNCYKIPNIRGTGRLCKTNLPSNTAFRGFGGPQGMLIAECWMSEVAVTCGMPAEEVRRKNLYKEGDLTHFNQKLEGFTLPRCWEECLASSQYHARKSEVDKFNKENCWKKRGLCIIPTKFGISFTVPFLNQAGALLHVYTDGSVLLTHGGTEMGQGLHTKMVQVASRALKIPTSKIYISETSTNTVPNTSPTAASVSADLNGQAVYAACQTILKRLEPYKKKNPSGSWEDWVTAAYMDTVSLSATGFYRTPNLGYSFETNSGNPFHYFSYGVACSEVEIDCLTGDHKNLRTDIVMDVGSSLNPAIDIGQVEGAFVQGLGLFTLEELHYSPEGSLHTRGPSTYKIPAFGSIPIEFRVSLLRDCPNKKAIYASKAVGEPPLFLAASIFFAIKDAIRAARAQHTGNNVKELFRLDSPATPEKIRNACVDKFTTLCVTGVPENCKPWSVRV
Sequence of Prostaglandin G/H synthase 1 (Homo sapiens) (P23219 whole entry): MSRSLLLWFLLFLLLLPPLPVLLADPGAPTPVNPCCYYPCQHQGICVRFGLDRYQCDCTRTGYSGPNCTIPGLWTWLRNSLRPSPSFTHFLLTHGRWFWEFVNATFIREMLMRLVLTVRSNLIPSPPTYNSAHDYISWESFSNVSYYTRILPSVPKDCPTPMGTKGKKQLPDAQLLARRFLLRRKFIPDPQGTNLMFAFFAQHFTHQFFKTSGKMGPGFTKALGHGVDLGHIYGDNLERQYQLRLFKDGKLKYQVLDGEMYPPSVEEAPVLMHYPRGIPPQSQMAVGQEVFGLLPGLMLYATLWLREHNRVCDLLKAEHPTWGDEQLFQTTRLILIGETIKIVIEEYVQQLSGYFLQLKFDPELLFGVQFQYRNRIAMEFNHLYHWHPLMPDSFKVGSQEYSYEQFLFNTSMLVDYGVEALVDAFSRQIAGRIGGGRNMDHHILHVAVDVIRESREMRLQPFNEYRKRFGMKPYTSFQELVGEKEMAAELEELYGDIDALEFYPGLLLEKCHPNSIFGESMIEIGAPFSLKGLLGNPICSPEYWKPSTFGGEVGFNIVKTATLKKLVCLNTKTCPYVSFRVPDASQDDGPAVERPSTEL
Sequence of Cholinesterase (P06276 whole entry): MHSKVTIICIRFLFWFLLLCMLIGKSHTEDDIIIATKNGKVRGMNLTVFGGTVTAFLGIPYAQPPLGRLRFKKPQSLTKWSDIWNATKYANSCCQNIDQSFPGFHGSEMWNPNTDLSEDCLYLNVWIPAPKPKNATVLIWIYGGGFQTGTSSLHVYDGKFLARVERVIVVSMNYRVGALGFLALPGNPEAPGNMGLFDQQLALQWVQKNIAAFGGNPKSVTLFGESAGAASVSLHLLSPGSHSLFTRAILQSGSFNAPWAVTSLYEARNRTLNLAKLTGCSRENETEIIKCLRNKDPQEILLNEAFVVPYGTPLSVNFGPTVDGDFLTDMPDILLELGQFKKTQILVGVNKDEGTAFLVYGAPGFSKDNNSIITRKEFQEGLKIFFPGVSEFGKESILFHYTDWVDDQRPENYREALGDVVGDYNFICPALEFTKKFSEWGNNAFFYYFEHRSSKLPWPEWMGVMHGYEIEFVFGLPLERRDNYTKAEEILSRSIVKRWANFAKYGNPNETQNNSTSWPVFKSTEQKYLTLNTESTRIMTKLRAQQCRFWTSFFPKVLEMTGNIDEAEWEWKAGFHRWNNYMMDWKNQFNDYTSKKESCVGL

Take `C/C=C1/CN2CC[C@@H]1[C@](CO)(C(=O)OC)c1[nH]c3ccccc3c1C2`: the minimum inhibitory concentration (MIC) in [1] was greater than 128 µg/mL.
Regarding `O=C1C[C@@H]2OCC=C3CN4CC[C@]56c7ccccc7N1[C@H]5[C@H]2[C@H]3C[C@H]46` [STRYCHNINE], the LD50 in [2] was 0.96 mg/kg.
As to `COC(=O)C1=C2Nc3c(OC)cccc3[C@]23CC[N+]2(C)C[C@H](C(C)=O)[C@H]1C[C@H]32` (some centres not stated), the half-maximal inhibitory concentration (IC50) (in data set [3]; in the data set with SAOS-2; in the data set on MG-63; in the data set on U2OS) was 9.2 µM in each case.
As for `CC[C@H]1[C@@H]2CCN3CC[C@@]4(C(=C2C(=O)OC)Nc2ccccc24)[C@@H]13` [TUBOTAIWINE], in data set [4], the Ki was found to be 1.65 µM. Besides, the results for the inhibition in [5], in [6] and in data set [7] were 90.4%, 69.5% and 60.8%, respectively. Further, the MIC in [1] was found to be 100 µg/mL (≈ 308 µM). For the same compound, the GI50 with Leishmania infantum came to 5.9 µg/mL (≈ 18.2 µM).
With `COc1cc([C@H]2Oc3ccc4[nH]cc5c4c3[C@H]2C(=O)NCC5=O)ccc1O`, in data set [8], the mortality at 24 h, 10 ug/ml was found to be 90%.
For the compound `C/C=C1\CN2CC[C@@H]1[C@](CO)(C(=O)OC)c1[nH]c3ccccc3c1C2`, the values for the inhibition in data set [5], in data set [6] and in data set [7] were 63.7%, 60.8% and 49.4%, respectively. Also, the IC50 in data set [9] is 32.6 µM; in data set [10] it was 24.5 µM; in data set [11], greater than 100 µM.
In the case of `CC1(C)/C=C\N2C(=O)[C@]3(O)[C@H](O)CCN3C(=O)[C@@H]2Cc2c1[nH]c1ccccc21`, in the data set with N2a, the Activity is on record as 36.5%.
In turn, `COC(=O)[C@]12COCC[C@@H]3[C@H](c4c1[nH]c1ccccc41)N(C)CC[C@@H]32` [UNDULIFOLINE] showed a half-inhibitory concentration (IC50) on Cholinesterase of 28.5 µM.
Take `COc1cc([C@H]2Oc3ccc4[nH]cc5c4c3[C@H]2C(=O)NCC5)ccc1O`: the MIC in the data set on Proteus mirabilis is 1 µg/mL (≈ 2.85 µM); in data set [12], 10 µg/mL (≈ 28.5 µM); in data set [13], 1 µg/mL (≈ 2.85 µM). Besides, the IC50 in data set [14] was 3.2 10^-3mg/ml.
`CC1(C)/C=C\N2C(=O)C3(O)C(O)CCN3C(=O)[C@@H]2Cc2c1[nH]c1ccccc21` (some centres not stated): in the data set with N2a, the Activity is 38.6%.
In the case of `C=C1c2[nH]c3ccccc3c2CN2CC[C@H]1/C(=C\C)C2` [APPARICINE], the inhibition constant Ki in data set [4] was found to be 2.65 µM. In the data set with P388, the EC50 was found to be 3.8 µg/mL (≈ 14.4 µM). The compound also showed an IC50 in [15] of 0.65 µM.
On to `COC(=O)[C@@]12COC[C@@H](O)[C@@]3(CO)[C@@H]1CCN3Cc1c2[nH]c2ccccc12`, for which the IC50 came to 7.33 µg/mL (≈ 19.7 µM) in data set [16] and 7.76 µg/mL (≈ 20.8 µM) with KB.
For `COc1cc2c(cc1OC)[C@@]13CCN4CC5=CCO[C@H]6CC(=O)N2[C@H]1[C@H]6[C@H]5C[C@H]43` [BRUCINE], in [17], the LD50 was 12 mg/kg. Also, the Activity in the data set with SMMC-7721 worked out at 92.3%; with HepG2 it was 78.3%. Also, in the data set with MCF7, the IC50 turned out to be 279 µM.
Take `O=CC1=C[C@@]2(O)CC/C=C\CCCCN3CC[C@@H]1[C@]1(C[C@@H]4/C=C\CCCCN4[C@H]12)C3` [IRCINAL]: the values for the IC50 with KB and in the data set on L1210 were 4.8 µg/mL (≈ 11.7 µM) and 1.4 µg/mL (≈ 3.41 µM), respectively.
